Several values for one entry are separate records, joined by “and”; a condition that tells them apart may be missing. Identical values can stand only once. Like-named read-outs stand apart in the source and are kept apart here.
How the values were obtained:
[1] = male, Bama, minipig, in vivo, 24 h
Protocol: Minipigs received 0 (vehicle, purified water), 0.3, 1.0, or 2.0 g/kg of ribitol in a Latinsquare design on Days 1, 12, 17, and 25, respectively. […] Body weights were measured at baseline and on each dosing day. On each dosing occasion, ECG waveforms, heart rate, and blood pressure data were recorded from at least 2 hours prior to dose (to establish baseline values) to approximately 24 hours post-dose. ECG tracings of a minimum of 30 seconds duration were obtained from all minipigs twice prior to each dose (at least 30 minutes apart) and at 0.5, 2, 4, 8, 12, and 24 hours post dose.

[2] = Plasma protein binding, rapid equilibrium dialysis; assay type: in vitro ADME
Protocol: Protein binding studies with ribitol were performed in vitro using plasma from CD-1 mouse, Sprague-Dawley rat, Gottingen minipig, and human at 75 μg/mL (0.49 mM) and 200 μg/mL (1.31 mM) using the rapid equilibrium dialysis method. The percent of ribitol bound to plasma was approximately similar between the two concentrations tested in all species.

[3] = Metabolic stability in liver microsomes, cytosol, hepatocytes; assay type: in vitro ADME
Protocol: Metabolic stability of ribitol was conducted in liver microsomes, cytosol, and primary hepatocytes, from CD-1 mouse, Sprague-Dawley rat, Gottingen minipig, and human at a concentration of ribitol of 10 μM.

[4] = Chronic (6 months) administration in mice; assay type: in vivo, mouse
Protocol: This response subsided at 48 hours after termination of treatment. No other adverse findings have been identified thus far with ribitol.

[5] = 28-day oral GLP toxicity study with 14-day recovery; details: minipig
Protocol: The purpose of this GLP study was to assess the potential toxicity, reversibility, persistence, or delayed effects of ribitol in minipigs following 28 days of BID oral gavage dosing with a 14 day recovery period. In addition, the plasma TK profile of ribitol was evaluated on Days 1 and 28. Four Bama minipigs/sex/group were administered 0 (vehicle control, purified water), 0.1, 0.3, or 1.0 g/kg/dose ribitol by oral gavage BID (0.2, 0.6, 2.0 g/kg/day; 6 hours apart) for 28 days. In addition, 2 minipigs/sex/group were treated for 28 days with either vehicle (water) or 1.0 g/kg/dose ribitol BID (2.0 g/kg/day) followed by 14-day treatment-free recovery period. In-life assessments included mortality, clinical signs including detailed clinical observations pre-test and once weekly during the dosing and recovery phase, body weight, food consumption, ophthalmology, electrocardiography, and clinical pathology (hematology, coagulation, serum chemistry, and urinalysis). Terminal endpoints included macroscopic pathology, organ weights and histopathology. Blood was taken for plasma TK on Days 1 and 28.

[6] = 7-day repeat-dose oral toxicokinetics; assay type: in vivo, Bama minipig; details: for Tmax / Cmax / AUC(0-t): Bama, minipig, plasma; for AUC(0-t): read-out: AUC0-24
Protocol: Toxicokinetics were evaluated as part of a 7-day oral repeat-dose dose range finding study in Bama minipigs. […] On Days 1 and 7, blood was taken for plasma TK at 0 (pre first dose), 0.5, 1, 2, 4, 6 (pre-second dose), 6.5, 7, 8, 10, and 24 hours post-first dose.

[7] = CD-1, mouse, liver cytosol, Cytosol
[8] = CD-1, mouse, liver microsomes, Microsomes
[9] = CD-1, mouse, primary hepatocytes, Hepatocytes
[10] = Gottingen, minipig, liver cytosol, Cytosol
[11] = Gottingen, minipig, liver microsomes, Microsomes
[12] = Gottingen, minipig, primary hepatocytes, Hepatocytes
[13] = Sprague-Dawley, rat, liver cytosol, Cytosol
[14] = Sprague-Dawley, rat, liver microsomes, Microsomes
[15] = Sprague-Dawley, rat, primary hepatocytes, Hepatocytes
[16] = human, liver microsomes, Microsomes
[17] = human, primary hepatocytes, Hepatocytes
[18] = female, po, 0.1 g/kg, 0.1 g/kg BID, Day 1, F
[19] = female, po, 0.1 g/kg, 0.1 g/kg BID, Day 7, F
[20] = female, po, 0.3 g/kg, 0.3 g/kg BID, Day 1, F
[21] = female, po, 0.3 g/kg, 0.3 g/kg BID, Day 7, F
[22] = female, po, 1 g/kg, 1.0 g/kg BID, Day 1, F
[23] = female, po, 1 g/kg, 1.0 g/kg BID, Day 7, F
[24] = male, po, 0.1 g/kg, 0.1 g/kg BID, Day 1, M
[25] = male, po, 0.1 g/kg, 0.1 g/kg BID, Day 7, M
[26] = male, po, 0.3 g/kg, 0.3 g/kg BID, Day 1, M
[27] = male, po, 0.3 g/kg, 0.3 g/kg BID, Day 7, M
[28] = male, po, 1 g/kg, 1.0 g/kg BID, Day 1, M
[29] = male, po, 1 g/kg, 1.0 g/kg BID, Day 7, M

OC[C@@H](O)[C@@H](O)[C@@H](O)CO [ribitol, (2R,3s,4S)-Pentane-1,2,3,4,5-pentol]
NOEL above efficacious dose of 0.5 g/kg in FKRP mutant mouse models [1]: approximately 4 fold
safety margin for proposed clinical starting dose [1]: 227 fold
% Binding ([2]; 75 μg/mL (0.49 mM), CD-1 mouse plasma): 44.6 ± 1.3%
% Binding ([2]; 75 μg/mL (0.49 mM), Gottingen minipig plasma): 44.1 ± 1.0%
% Binding ([2]; 75 μg/mL (0.49 mM), Sprague-Dawley rat plasma): 43.3 ± 3.4%
% Binding ([2]; 75 μg/mL (0.49 mM), human plasma): 36.5 ± 1.8%
% Binding ([2]; 200 μg/mL (1.31 mM), CD-1 mouse plasma): 42.5 ± 0.3%
% Binding ([2]; 200 μg/mL (1.31 mM), Gottingen minipig plasma): 38.6 ± 2.4%
% Binding ([2]; 200 μg/mL (1.31 mM), Sprague-Dawley rat plasma): 40.3 ± 0.5%
% Binding ([2]; 200 μg/mL (1.31 mM), human plasma): 34.6 ± 0.3%
fraction unbound ([2]; human plasma, 0.49 and 1.31 mM, range): 0.635 to 0.654
CLint scaled at 10 μM [3, 7]: 4.75 mL/min/kg
half-life at 10 μM [3, 7]: 9.63 h
CLint scaled at 10 μM [3, 8]: < 29.3 mL/min/kg
half-life at 10 μM [3, 8]: > 3.12 h
CLint scaled at 10 μM [3, 9]: < 22.6 mL/min/kg
half-life at 10 μM [3, 9]: > 6.07 h
CLint scaled at 10 μM [3, 10]: 2.71 mL/min/kg
half-life at 10 μM [3, 10]: 3.27 h
CLint scaled at 10 μM [3, 11]: < 5.56 mL/min/kg
half-life at 10 μM [3, 11]: > 3.12 h
CLint scaled at 10 μM [3, 12]: < 9.16 mL/min/kg
half-life at 10 μM [3, 12]: > 6.07 h
CLint scaled at 10 μM [3, 13]: 4.83 mL/min/kg
half-life at 10 μM [3, 13]: 4.3 h
CLint scaled at 10 μM [3, 14]: < 13.3 mL/min/kg
half-life at 10 μM [3, 14]: > 3.12 h
CLint scaled at 10 μM [3, 15]: < 8.89 mL/min/kg
half-life at 10 μM [3, 15]: > 6.07 h
CLint scaled at 10 μM ([3]; human, liver cytosol, Cytosol): 1.64 mL/min/kg
half-life at 10 μM ([3]; human, liver cytosol, Cytosol): 6.35 h
CLint scaled at 10 μM [3, 16]: < 6.66 mL/min/kg
half-life at 10 μM [3, 16]: > 3.12 h
CLint scaled at 10 μM [3, 17]: < 5.28 mL/min/kg
half-life at 10 μM [3, 17]: > 6.07 h
adverse findings ([4]; 6 months, ≥2 g/kg/day): intestinal bloating and soft stool were observed
time for response to subside after termination of treatment ([4]; intestinal bloating and soft stool): 48 h
NOAEL at 28 days ([5]; both, Bama, in vivo, po): 2000 mg/kg/day
NOAEL ([5]; 28 days oral, both sexes): 1 g/kg/dose BID and 1.0 g/kg/dose BID
drug accumulation ([6]; 7 days, up to 1.0 g/kg/dose BID): no apparent accumulation
Tmax ([6]; both sexes, oral, post first dose, Days 1 and 7, range): 0.5 to 6.5 h
Cmax [6, 18]: 53.1 µg/mL
Tmax [6, 18]: 3.8 h
AUC(0-t) [6, 18]: 284 µg·h/mL
Cmax [6, 19]: 40.2 µg/mL
Tmax [6, 19]: 0.8 h
AUC(0-t) [6, 19]: 317 µg·h/mL
Cmax [6, 20]: 112 µg/mL
Tmax [6, 20]: 0.8 h
AUC(0-t) [6, 20]: 676 µg·h/mL
Cmax [6, 21]: 159 µg/mL
Tmax [6, 21]: 0.5 h
AUC(0-t) [6, 21]: 784 µg·h/mL
Cmax [6, 22]: 299 µg/mL
Tmax [6, 22]: 1.3 h
AUC(0-t) [6, 22]: 1750 µg·h/mL
Cmax [6, 23]: 331 µg/mL
Tmax [6, 23]: 1.3 h
AUC(0-t) [6, 23]: 1870 µg·h/mL
Cmax [6, 24]: 35.5 µg/mL
Tmax [6, 24]: 3.5 h
AUC(0-t) [6, 24]: 160 µg·h/mL
Cmax [6, 25]: 45.1 µg/mL
Tmax [6, 25]: 3.5 h
AUC(0-t) [6, 25]: 183 µg·h/mL
Cmax [6, 26]: 117 µg/mL
Tmax [6, 26]: 6.5 h
AUC(0-t) [6, 26]: 504 µg·h/mL
Cmax [6, 27]: 58.3 µg/mL
Tmax [6, 27]: 0.5 h
AUC(0-t) [6, 27]: 438 µg·h/mL
Cmax [6, 28]: 308 µg/mL
Tmax [6, 28]: 3.8 h
AUC(0-t) [6, 28]: 169 µg·h/mL
Cmax [6, 29]: 283 µg/mL
Tmax [6, 29]: 1.3 h
AUC(0-t) [6, 29]: 1920 µg·h/mL

Reference: US20230364118A1, “RIBITOL TREATMENT” (priority 2020, published 2023)
